“Also recorded” adds a separate entry of the source.
Key:
[1] = tested on: Caulobacter chromosomal loci (origin, origin-distal loci); assay: Chromosome segregation of FROS-labeled loci; format: cell-based, Caulobacter crescentus
Excerpt: A22 Treatment Blocks Chromosome Segregation. Having established that A22 targets MreB and rapidly disrupts its localization, we used A22 to assess the acute role of MreB in chromosome segregation. To this end we took advantage of strains previously generated in our group that use the fluorescent repressor-operator system (FROS) to simultaneously label two specific chromosomal loci in the same living cell. This system uses fusions of two DNA binding proteins, the lac repressor (LacI) and the Tet repressor (tetR), to CFP and YFP, respectively. Two arrays, each containing multiple tandem repeats of either the LacI or TetR binding sites, are integrated into different chromosomal loci. Each fusion protein clusters at its respective array, causing the cellular address of that array to fluoresce in a detectable fashion.
Synchronized swarmer cells with lac arrays at the origin locus and tet arrays at the midcell-positioned CC2943 locus (FIG. 5A) were incubated with 10 μg/ml A22. After varying periods of time in the presence of A22, the cellular positions of the origin and CC2943 were examined by fluorescence microscopy. The cultures continued to increase in cell mass, as measured by an increase in optical density, but cell division was blocked. […] This effect was reversible, since upon washing out the A22 drug, the origins were rapidly and normally segregated.
Treatment of swarmer cells with A22 before the origins have segregated blocks the movement of chromosomal loci. […]
Though origin-distal loci can separate in the presence of A22, MreB could still partially contribute to their cellular positioning and rate of movement across the cell. Technical considerations prevent the quantitative analysis of locus movement in doubly labeled cells. Thus, to quantitatively assess the role of MreB in origin-distal locus segregation, we examined two singly labeled strains, one with CC0786 marked at 860 kb to the right of the origin, and one with CC3192 marked at 576 kb to the left of the origin. […] The timelapses were analyzed using automated software that provides the absolute position of each locus in each cell. […]
Microscopy and Timelapse Imaging. […] The rates of origin-distal locus segregation were determined by inducing PxyI:lacI:cfp expression with 0.03% xylose for 75 min, isolating swarmer cells, and growing the swarmer cells in M2G liquid medium for 50 min. After 50 min, 10 μg/ml of A22 was added to these liquid cultures, they were mounted onto 1% M2G agarose pads containing 10 μg/ml A22, and a phase and CFP fluorescence image was captured every 2 min for 60 min. The images were analyzed by previously described software to determine the average position and rate of movement of the observed foci.

[2] = tested on: HoIB-GFP; assay: HoIB-GFP (replisome) localization; format: cell-based, Caulobacter crescentus; settings: 1 hr treatment
Method: To assess the ability of these cells to assemble a replisome at the replication origins, A22 was administered to cells expressing a fusion of GFP to the HoIB subunit of DNA polymerase.

[3] = target: T1, MreB-GFP fusion protein (Escherichia coli, UniProt P0A9X4); assay: MreB helical structures in vivo (MreB-GFP); format: cell-based, E. coli; settings: 10 μg/ml
T1 construct: expressed in transfected cells; host or cells: E. coli JM109 carrying pMreB1-GFP (native mreB promoter)
Method: FIG. 11. In vivo effects of A22. Exponentially growing JM109/pMreB1-GFP cells were treated with 10 μg/ml of A22, and changes in cell shape and GFP fluorescence were observed. (a, b) no treatment; (c, d) 30 min after A22 treatment; (e, f) 60 min after A22 treatment; (g, h) 120 min after A22 treatment.
It was recently shown that the MreB forms helical structures in E. coli as well as B. subtilis. […] In rounded cells, MreB-GFP appeared as discrete dots located close to the cell surface (FIGS. 11e-11h), which may be the result of aggregation of MreB-GFP protein de-polymerized by A22.
Construction of a mreB-gfp fusion plasmid A DNA fragment encoding the wild-type mreB gene was PCR-amplified from pMreB1 with primers (SEQ ID NO:5) 5′-[…]-3′ and (SEQ ID NO:6) 5′-[…]-3′. After cutting with Xba I and Nhe I, the PCR-generated DNA fragments were ligated to an XbaI-NheI-cut gfp vector pQIB-T7-GFP (Qbiogene Inc., Irvine, Calif., USA), resulting in an mreB-gfp translational fusion. From the resulting plasmid, an Aor51HI-HindIII fragment encoding the C-terminal portion of MreB fused with GFP was isolated and used to replace the Aor51HI-HindIII fragment of pMreB1, resulting in a plasmid pMreB1-GFP that expresses the MreB-GFP fusion protein from the native mreB promoter. […]

[4] = tested on: Caulobacter; assay: Caulobacter morphology (DIC images); format: cell-based, Caulobacter crescentus
Excerpt: Consistent with previous observations in E. coli (Iwai et al., 2002), A22 caused a dose-dependent alteration of Caulobacter morphology, transforming normal, crescent-shaped cells into rounded, lemon-shaped cells. The progression of cell shape deformation by A22 treatment was qualitatively similar to that caused by mreB depletion, though the A22 effect was more rapid (FIGS. […]). […] For example, A22 could disrupt the localization of new cell wall synthesis but have no effect on the existing cell wall, such that without additional growth and wall synthesis A22's effects cannot be perceived. A dependence on cell growth could also explain why A22's effect on morphology takes several hours to manifest.
Microscopy and Timelapse Imaging. All experiments other than the A22 flow-cell analysis were performed by mounting the samples on 1% agarose pads as described, with the appropriate concentration of A22 added to the agarose. The rates of origin-distal locus segregation were determined by inducing PxyI:lacI:cfp expression with 0.03% xylose for 75 min, isolating swarmer cells, and growing the swarmer cells in M2G liquid medium for 50 min. After 50 min, 10 μg/ml of A22 was added to these liquid cultures, they were mounted onto 1% M2G agarose pads containing 10 μg/ml A22, and a phase and CFP fluorescence image was captured every 2 min for 60 min. The images were analyzed by previously described software to determine the average position and rate of movement of the observed foci.

T1 sequence (P0A9X4 whole entry, the tested form may be a part): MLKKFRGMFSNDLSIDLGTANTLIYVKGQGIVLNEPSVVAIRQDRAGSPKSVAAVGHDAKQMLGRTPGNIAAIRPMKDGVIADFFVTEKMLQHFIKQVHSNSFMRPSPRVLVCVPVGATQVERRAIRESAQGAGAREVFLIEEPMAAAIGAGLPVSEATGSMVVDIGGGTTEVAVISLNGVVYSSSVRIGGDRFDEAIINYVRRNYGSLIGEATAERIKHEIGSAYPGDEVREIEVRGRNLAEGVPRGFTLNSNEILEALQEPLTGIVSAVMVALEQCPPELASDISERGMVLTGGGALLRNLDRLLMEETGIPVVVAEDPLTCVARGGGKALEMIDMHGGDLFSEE

N=C(N)SCc1ccc(Cl)c(Cl)c1 [Compound 1, S-(3,4-dichlorobenzyl)isothiourea]
Origin segregation in cells with T158A A22-resistant mreB allele ([1]; 10 μg/ml): successfully segregated | Locus position and rate of segregation of CC0786 and CC3192 ([1]; 10 μg/ml added after 50 min, timelapse 60 min): unaffected | Foci of origin and CC2943 loci in swarmer cells ([1]; 10 μg/ml added to synchronized swarmer cells, 30-180 min): only one focus for each locus | Separation of origin-distal loci (CC2943, CC3300, CC3656, CC0091) ([1]; A22 added after origin segregation (30 min), listed as A22): proceeded to replicate and separate their CC2943 locus into two foci; also recorded: duplicated and separated in the presence of A22 | HoIB-GFP localization [2]: no effect on HoIB-GFP localization | MreB-GFP dots and bands (helical structures) ([3]; 30-minute treatment, JM109 cells): fluorescent dots and bands disappeared | Cell shape of MreB-GFP expressing JM109 cells ([3]; after 120 minutes): almost spherical | Caulobacter growth and cell shape ([4]; 100 μg/ml): completely blocked growth but did not cause Caulobacter to round up | Caulobacter growth and cell shape ([4]; 0.1, 1, and 10 μg/ml): both slowed cell growth and altered cell shape
